According to ChEMBL document CHEMBL1134128, “Rational design of a new series of pronucleotide” (Bioorg Med Chem Lett, 2001):

What was measured:
[1] = Half life in culture medium containing 10% of heat inactivated foetal calf serum; type: ADME, cell-free, Bos taurus; settings: cattle
CEM-SS [2] = assay: Cytotoxic concentration to inhibit HIV replication in TK CEM-SS cell line and the value is represented as CC50; type: functional; settings: Homo sapiens
[3] = The pKa value was reported; type: physicochemical
[4] = Half life in human serum; type: ADME, cell-free
[5] = Partition coefficient (logP); type: physicochemical; settings: octanol/water
[6] = Half life were determined in CEM-SS cell extract in decomposition step 1; type: ADME; settings: human
CEM-SS [7] = assay: Effective concentration to inhibit HIV replication in TK CEM-SS cell line and the value is represented as EC50; type: functional, cell-based; settings: Homo sapiens
CEM-SS [8] = assay: Cytotoxic concentration to inhibit HIV replication in TK CEM-SS cell line; type: functional; settings: Homo sapiens
CEM-SS [9] = assay: Effective concentration to inhibit HIV replication in TK CEM-SS cell line; type: functional, cell-based; settings: Homo sapiens

Structure (SMILES) | half-life [1] [days] | pKa [3] | half-life [4] [min] | logP [5] | half-life [6] [min] | EC50 (CEM-SS [9]) [nM] | CC50 (CEM-SS [2]) [µM] | EC50 (CEM-SS [7]) [nM] | CC50 (CEM-SS [8]) [µM]
Cc1cn(C2CC(N=[N+]=[N-])C(COP(=O)(O)N3CCOCC3)O2)c(=O)[nH]c1=O (centres undefined) | 16 | 8.36 | 1380 | 1.86 | 126 | – | > 100 | 2000 | –
CCCCN(CCCC)P(=O)(O)OCC1OC(n2cc(C)c(=O)[nH]c2=O)CC1N=[N+]=[N-] (centres undefined) | 5.67 | 11.2 | 1380 | 4 | 57.6 | – | > 10 | > 10000 | –
Cc1cn(C2CC(N=[N+]=[N-])C(COP(=O)(O)N3CCCCC3)O2)c(=O)[nH]c1=O (centres undefined) | – | 11.1 | – | 2.77 | 72 | – | > 100 | 5200 | –

The next lines start with results.

half-life [1] [days] | pKa [3] | half-life [4] [min] | logP [5] | half-life [6] [min] | EC50 (CEM-SS [9]) [nM] | Structure (SMILES) | CC50 (CEM-SS [2]) [µM] | EC50 (CEM-SS [7]) [nM] | CC50 (CEM-SS [8]) [µM]
14.6 | 10.4 | 1380 | 2.45 | 72 | – | Cc1cn(C2CC(N=[N+]=[N-])C(COP(=O)(NC(C)(C)C)OCCSC(=O)C(C)(C)C)O2)c(=O)[nH]c1=O (centres undefined) | > 100 | 1500 | –
8.33 | 10.6 | 600 | 1.91 | 72 | 630 | Cc1cn(C2CC(N=[N+]=[N-])C(COP(=O)(NC(C)C)OCCSC(=O)C(C)(C)C)O2)c(=O)[nH]c1=O (centres undefined) | – | – | > 100
6.88 | 10.6 | 1740 | 2.67 | 78 | – | CCCCNP(=O)(O)OCC1OC(n2cc(C)c(=O)[nH]c2=O)CC1N=[N+]=[N-] (centres undefined) | > 100 | 1200 | –
4.17 | 4.68 | 1380 | 2.55 | 84 | – | Cc1cn(C2CC(N=[N+]=[N-])C(COP(=O)(Nc3ccccc3)OCCSC(=O)C(C)(C)C)O2)c(=O)[nH]c1=O (centres undefined) | > 10 | > 10000 | –
– | – | – | – | – | > 100000 | Cc1cn([C@H]2C[C@H](N=[N+]=[N-])[C@@H](CO)O2)c(=O)[nH]c1=O [ZIDOVUDINE] | – | – | > 100
